Here are results for 1 molecule from article PMC5512079, “The sialate O-acetylesterase EstA from gut Bacteroidetes species enables sialidase-mediated cross-species foraging of 9-O-acetylated sialoglycans” (The Journal of Biological Chemistry, 2017).

The test addresses T1, B. thetaiotaomicron NanH sialidase (NanH-His) (Bacteroides thetaiotaomicron, UniProt Q8AAK9).
T1 construct: gene BT_0455
T1 sequence (Q8AAK9 23-544): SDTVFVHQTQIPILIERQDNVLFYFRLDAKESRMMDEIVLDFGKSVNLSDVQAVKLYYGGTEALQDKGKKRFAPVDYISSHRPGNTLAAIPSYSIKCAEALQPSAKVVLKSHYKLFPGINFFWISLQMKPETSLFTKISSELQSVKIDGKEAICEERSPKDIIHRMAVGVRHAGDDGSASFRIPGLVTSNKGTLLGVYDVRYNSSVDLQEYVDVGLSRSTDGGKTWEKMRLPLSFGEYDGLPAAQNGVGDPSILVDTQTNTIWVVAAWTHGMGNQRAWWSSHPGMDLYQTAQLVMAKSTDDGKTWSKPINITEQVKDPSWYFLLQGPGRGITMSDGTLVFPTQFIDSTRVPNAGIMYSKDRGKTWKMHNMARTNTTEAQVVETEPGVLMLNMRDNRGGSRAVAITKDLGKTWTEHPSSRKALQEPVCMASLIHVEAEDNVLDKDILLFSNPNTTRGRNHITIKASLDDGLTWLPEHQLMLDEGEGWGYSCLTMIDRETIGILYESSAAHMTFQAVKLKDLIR
Briefly: fluorogenic sialidase assay, 4-methylumbelliferone release (ex […] nm, em […] nm). It is filed as biochemical. The settings on record: 100 uM 4-MU-Sia, PBS pH 7.4; used to test fractions and estimate milliunits.

Turning to `CC(=O)N[C@H]1[C@H]([C@H](O)[C@H](O)CO)OC(Oc2ccc3c(C)cc(=O)oc3c2)(C(=O)O)C[C@@H]1O` (stereo partly shown) [4-methylumbelliferyl-N-acetylneuraminic acid], the “fluorogenic sialidase assay, 4-methylumbelliferone release (ex 365 nm, em 440 nm)” value is “Fractions were tested for activity with the fluorogenic sialidase substrate 4-methylumbelliferyl-N-acetylneuraminic acid”.
